# Data: PMC4865845, “A human genome-wide loss-of-function screen identifies effective chikungunya antiviral drugs” (Nature Communications, 2016)
# Test system: CHIKV
# Type: cell-based, chikungunya virus
substance,measurement,value
Hs_ACO2_5 (CGGGAAGACATTGCCAATCTA; chemistry not given here),Score_si1,2.43
Hs_ACYP1_1 (AAGGATTACCACTGTACACAA; chemistry not given here) [reference compound],Score_si1,-2.79
Hs_ADPRHL1_1 (CCCGACAATTATGATGCAGAA; chemistry not given here) [reference compound],Score_si1,-2.15
Hs_ANKRD9_1 (AAGAGAGGTATGGGACCTGAA; chemistry not given here),Score_si1,2.5
Hs_ANKRD9_2 (CTCCCAGGAGCTAACGTATAA; chemistry not given here),Score_si2,2.08
Hs_AOF2_2 (ACATCTTACCTTAGTCATCAA; chemistry not given here),Score_si4,0.88
Hs_AOF2_3 (ACGAGTTGCCACATTTCGCAA; chemistry not given here),Score_si3,1.26
Hs_AP2M1_3 (ACGTGTGACTTCGTCCAGTTA; chemistry not given here),Score_si1,2.57
Hs_AP3S2_1 (TGGGATGGTGTTGGAAACAAA; chemistry not given here),Score_si2,1.11
Hs_AP3S2_2 (CAGGGCTTAGGCGCCCATAAA; chemistry not given here),Score_si1,1.97
Hs_APEX2_3 (AGGGCCCTTCATCGATAGCTA; chemistry not given here) [reference compound],Score_si1,-3.29
Hs_APEX2_5 (ACGCTGCAGCACAACAATCAA; chemistry not given here) [reference compound],Score_si4,-0.1
Hs_APPL_2 (CAGGAATTTCTACAATAATAA; chemistry not given here) [reference compound],Score_si1,-2.3
Hs_APPL_3 (TAGGAATAGGATAATGATATA; chemistry not given here) [reference compound],Score_si2,-1.06
Hs_AQP3_2 (CTGGATGTACATACATAAGTA; chemistry not given here),Score_si3,1.09
Hs_AQP3_3 (CTGGATCAAGCTGCCCATCTA; chemistry not given here),Score_si1,1.31
Hs_ASH2L_1 (CCGAGTAACTAACTTATTTAA; chemistry not given here),Score_si2,1.07
Hs_ASH2L_3 (TTGGAACACCCGTTTAACAAA; chemistry not given here),Score_si1,1.11
Hs_ATF1_6 (AACCTAGTACATTACTAAATA; chemistry not given here) [reference compound],Score_si4,-0.75
Hs_ATF1_7 (CCAATAAATTCTAAATTACAA; chemistry not given here) [reference compound],Score_si2,-1.38
Hs_ATF1_8 (CTGCATCAGGAGATATGCAAA; chemistry not given here) [reference compound],Score_si1,-1.45
Hs_ATP6AP2_1 (ATGGGCTAATATGGATACTAA; chemistry not given here),Score_si2,0.84
Hs_ATP6AP2_2 (AAGAGTGTATATGGTAGGGAA; chemistry not given here),Score_si4,0.62
Hs_ATP6AP2_3 (AAGGACTATCCTTGAGGCAAA; chemistry not given here),Score_si1,1.26
Hs_ATP6AP2_5 (CAAGTGCTACATGATATTTCA; chemistry not given here),Score_si3,0.69
Hs_ATP6V0C_2 (CTGGATGTTTATTTATAAAGA; chemistry not given here),Score_si1,3.5
Hs_BCHE_2 (CGGGTTGAAAGAGTTATTGTA; chemistry not given here),Score_si2,0.74
Hs_BCHE_3 (CAGGAGTGAGTGAGTTTGGAA; chemistry not given here),Score_si3,0.6
Hs_BCHE_4 (CAGAACGTTGAACTTAGCTAA; chemistry not given here),Score_si1,0.93
Hs_BOP1_2 (CTGCCATGGCATGGTGTACAA; chemistry not given here),Score_si2,2.23
Hs_BRD8_1 (TGCAATGACATTGCAACGAAA; chemistry not given here),Score_si4,0.57
Hs_BRD8_4 (CCGGCTGTCTCCACTACTGAA; chemistry not given here),Score_si1,2.93
Hs_C14orf160_1 (AAAGATTTGAATTATAAATAA; chemistry not given here) [reference compound],Score_si3,-1.03
Hs_C14orf160_2 (ATGGAGTTACTGAAATGTATA; chemistry not given here) [reference compound],Score_si2,-1.06
Hs_C15orf15_1 (CAGCATTTGTATAGTAACTAA; chemistry not given here),Score_si1,1.89
Hs_CAB39L_2 (GCCAATGTCTTTGGACTGTAA; chemistry not given here),Score_si1,2.37
Hs_CALM2_5 (ACAAAGGAATTGGGAACTGTA; chemistry not given here),Score_si4,0.05
Hs_CALM2_7 (CAAAGGAATTGGGAACTGTAA; chemistry not given here),Score_si1,3.2
Hs_CAMKK2_3 (TAGCAGCATGTCCTACGGAAA; chemistry not given here),Score_si4,1.01
Hs_CAMKK2_4 (sense ACAGAAAGGGCTTGAAATTTA; chemistry not given here),Score_si3,1.25
Hs_CAMKK2_6 (sense CCGCAAGATCTTCTCTGGGAA; chemistry not given here),Score_si1,1.65
Hs_CAMKK2_7 (sense CTAGCTGATTGTTGTGGTCAA; chemistry not given here),Score_si2,1.31
Hs_CCDC6_1 (sense ATGGATAATTATCGTATATTA; chemistry not given here) [reference compound],Score_si1,-2.65
Hs_CCDC6_2 (sense CAGGAATTTCAGGTCAACAAA; chemistry not given here) [reference compound],Score_si2,-0.83
Hs_CCNF_2 (sense AACCCAAGCGTTGGAACTGTA; chemistry not given here),Score_si1,2.05
Hs_CCNF_3 (sense CACAGATGGCGTCAATGTGAA; chemistry not given here),Score_si2,1.09
Hs_CCNF_7 (sense CACGGACAACACTTACAAGTA; chemistry not given here),Score_si3,0.92
Hs_CDC25A_1 (sense AAGGCGCTATTTGGCGCTTCA; chemistry not given here),Score_si2,1.56
Hs_CDK4_1 (sense CCGAACTGACCGGGAGATCAA; chemistry not given here),Score_si2,1.51
Hs_CDK4_2 (sense CAAGGTAACCCTGGTGTTTGA; chemistry not given here),Score_si1,1.6
Hs_CDK4_3 (sense ACCCTGGTGTTTGAGCATGTA; chemistry not given here),Score_si3,1.02
Hs_CGI-12_1 (sense AAGATGTTAACTGCAAATAAA; chemistry not given here) [reference compound],Score_si1,-2.28
Hs_CHD8_1 (sense CAGGAGGTTATTGGAGACCAA; chemistry not given here),Score_si2,1.61
Hs_CHD8_2 (sense AAGGATAAGAGGATACATCAA; chemistry not given here),Score_si3,1.53
Hs_CIZ1_1 (sense CAGGTGAGGTCCAGAGATATA; chemistry not given here) [reference compound],Score_si1,-1.69
Hs_CIZ1_2 (sense CAGCATGGAAGAGATTCAGAA; chemistry not given here) [reference compound],Score_si2,-1.05
Hs_CLCN6_2 (sense CCGGTGAATGTTATTGGAATT; chemistry not given here),Score_si3,-0.01
Hs_CLCN6_4 (sense AAGATGTGAATTCAAGTATCA; chemistry not given here),Score_si1,2.72
Hs_CLK1_2 (sense AACGTGATGAACGCACCTTAA; chemistry not given here),Score_si3,1.36
Hs_CLK1_4 (sense CCGTATTTCCAACACACGATA; chemistry not given here),Score_si4,0.91
Hs_CLPP_1 (sense CACGATGCAGTACATCCTCAA; chemistry not given here),Score_si4,0.97
Hs_CLPP_3 (sense GCCCATCCACATGTACATCAA; chemistry not given here),Score_si3,1.41
Hs_CLTC_11 (sense ACAGTTCTACTTAGAATTCAA; chemistry not given here),Score_si1,2.42
Hs_CLTC_12 (sense CCGGAGAGATTTCTTCGTGAA; chemistry not given here),Score_si2,2.21
Hs_CNOT1_1 (sense CAGCTGGAATGGCTATGATTA; chemistry not given here),Score_si2,2.61
Hs_CNOT1_2 (sense CCAAGTTTGAATTTCAAGGAA; chemistry not given here),Score_si1,2.81
Hs_CNOT3_1 (sense CTCGGACACTGTGGAATTCTA; chemistry not given here),Score_si1,2.54
Hs_CNOT3_2 (sense ACGGCTGAGGGACCAAATCAA; chemistry not given here),Score_si3,1.32
Hs_COPG_2 (sense CAGGAAAGGGACATTGTAAAT; chemistry not given here),Score_si2,2.25
Hs_COPS2_1 (sense CACGATATACTGCACTAGATA; chemistry not given here),Score_si2,1.3
Hs_COPS2_3 (sense ATGAATAGATATAAGCAGCTA; chemistry not given here),Score_si1,2.07
Hs_COPS2_4 (sense ATCCATTAATTCTATTCTTGA; chemistry not given here),Score_si4,1.19
Hs_CRSP7_1 (sense TACGGTTAACTTGGACGGGCA; chemistry not given here) [reference compound],Score_si2,-1.45
Hs_CRSP7_2 (sense GAGAAATACCCTATTACCAAA; chemistry not given here) [reference compound],Score_si1,-1.9
Hs_CRSP8_1 (sense AACGAGAATGTCTACACAGAA; chemistry not given here) [reference compound],Score_si1,-2.6
Hs_CRSP8_2 (sense TCGAACAATAGTAAAGGGATA; chemistry not given here) [reference compound],Score_si2,-1.08
Hs_CSNK1A1_3 (sense AAGAACTTAATTTCAGTATAA; chemistry not given here),Score_si3,1.65
